How the values were obtained:
[1] = Accelerated oxidation, Rancimat test of Polysorbate 80 coating on silica; type: physicochemical
Procedure: Solid silica particles (LuctaCarrier™ silica, Lucta, S. A., Barcelona, Spain) are coated 50% wt/wt (based of the combined weight of the particles and coating) with a mixture of polyethylene 20 sorbitan monooleate (Polysorbate 80) and an amount of the antioxidants set forth in the tables, below, or no antioxidant as a control. The solid antioxidants (e.g., BHA or BHT) are dissolved in a suitable solvent (e.g., ethyl alcohol) and then mixed with the Polysorbate 80 at the listed concentration levels. The oxidative stability of the coating is then determined using the Rancimat test. Oxidative stability relates to how easily components of oil oxidize which creates off-flavors in the oil, and is measured by instrumental analysis using accelerated oxidation methods. American Oil Chemists' Society Official Method Cd 12-57 for Fat Stability: Active Oxygen Method (re'vd 1989); Rancimat (Laubli, M. W. and Bruttel, P. A., JOACS 63:792-795 (1986)); Joyner, N. T. and J. E. McIntyre, Oil and Soap (1938) 15:184 (modification of the Schaal oven test). The Rancimat method has been developed as the automated version of the AOM method (active oxygen method) for the determination of the induction time of fats and oils. In this method the highly volatile organic acids produced by autoxidation are absorbed in water and used to indicate the induction time. As used in the following tables, the abbreviations have the following meanings: […]

[2] = test system: rumen microbial proteinases; test: Protease activity of mixed rumen microbial cell enzyme source (casein substrate); type: biochemical, cows
Procedure: Two rumen-fistulated, nonlactating cows averaging 623±12.5 kg in weight were fed 5 kg dry matter (DM) of low quality timothy hay twice daily. About 2.5L of rumen fluid was collected through the fistula 4 hrs after the morning feeding at 07:00 hrs. Bulk feed particles were removed by sieving the fluid through a 0.5 mm strain. The fluid was then composited and then stored in a prewarmed (37° C.) thermal container.
A microbial powder was prepared using the acetone-butanol extraction procedure outlined by Mahadevan et al., “Preparation of protease from mixed rumen microorganisms and its use for the in vitro determination of true protein in feedstuffs,” Can. J. Anim. Sci. 67:55 (1987). About 500 g of this powder was prepared and stored at −20° C. Extraction of the proteases was accomplished by stirring 250 g of the powder with 1L of 4° C. cold water (for 1 hr) and then proceeding along Mahadevan's extraction procedure. Only extracts from the filtration with an XM-300 Amicon Filter, (approx. 300 000 molecular weight cutoff—under nitrogen gas), were made, washed twice with distilled water and the retentate freeze dried. This was referred to as the mixed microbial cell enzyme source. It was used in the protein adhesion tests and also in the parallel thiol and protease activity determinations.
Ten grams of the mixed microbial cell enzyme was dissolved in 100 ml warm (37° C.) 0.1 M phosphate buffer, pH 6.8, and used as an enzyme inoculant. The assay matrix consisted of 1 ml enzyme source, 1 ml 2% casein solution, 1 ml 01 M phosphate buffer and 1 ml of either the relevant level of surfactant or an equivalent amount of buffer. Ten levels of the two surfactants, polyoxyethylene sorbitan monoleate (Tween 80) and polyoxyethylene sorbitan monastearate (Tween 60) were tested, viz 0, 0.08, 0.16, 0.24, 0.32, 0.4, 0.8, 1.2, 1.6, and, 2.0% surfactant in the assay mixture.
The protease activity incubations were performed in 50 ml plastic centrifuge tubes, at 37° C. and under a stream of carbon dioxide gas. After 1.5 hr, 1 ml of the assay mixture was removed for the determination of thiols (SH) and disulfides (SS) (Sasago et al., “Determination of sulfhydryl and disulfide groups in milk by p-chloromercuribenzoate-diathizone method,” J. Dairy Sci. 46:1348-1351 (1963)). At the end of 2 hr incubation, the reaction was stopped with 1 ml of 15% TCA (trichloroacetic acid) solution, cooled to 4° C. under an icebath, and centrifuged at 10,000 for 10 min. The free amino acids in the supernatant were assayed using the ninhydrin method (Rosen, “a Modified Colorimetric Analysis For Amino Acids,” Arch. Biochim. Biophys. 67:10 (1957)). The optimal surfactant inclusion level was calculated by direct linear plots on the assumption that the Michaellis-Menten equation applied.

rumen cellulase activity = test: In vitro cellulose degradation by rumen bacterial inoculum; type: biochemical, cows; details: 0.25% surfactant in reaction mixture; regression on initial 24 hr
Procedure: A bacterial fraction, largely free of protozoa, was prepared for the fermentation assays by using the procedure of Forsberg, “Some Effects of Arsenic on the Rumen Microflora; An In Vitro Study,” Can. J. Microbiol. 24:36 (1978). The digesta inoculum was resuspended and washed twice in an equivalent amount of 0.1 M phosphate buffer pH 6.8 to the rumen fluid. The inoculum provided both, the substrate and the enzyme used for cellulose degradation assay. Incubation periods were 0, 1.5, 3, 6, 12, 24, and 48 hr. Other incubation conditions were similar to those outlined in experiment 1 above. However, cellulose was determined by the method of Updergraff, supra, for the in vivo digestibility trial. The optimal level of Tween 80 obtained was adopted here and followed.

[3] = Griffin et al., 1972; cited from earlier work
[4] = Shelf life test, sensory panel rancidity score at 40° C.; type: physicochemical; details: 1000 ppm
Procedure: The nonionic surfactant polyoxyethylene 20 sorbitan monooleate (Polysorbate 80) is coated in an amount of 50% wt/wt onto silica particles (i.e., in the proportion 50 g. of Polysorbate 80 per 50 g. of silica), either without (control) or with added antioxidant. A shelf life test is performed by measuring, using a sensory panel, the level of rancid odor of samples stored at 40° C., with a rancidity score being assigned to each sample (with a score of 0 for no rancid odors and 10 for highest level of rancid odors. The results are shown in Table 13, below.

[5] = direct linear plots, Michaelis-Menten assumed

Compound: Cc1cc(C(C)(C)C)c(O)c(C(C)(C)C)c1 [BHT, butylated hydroxytoluene]
- Rancimat Stability ([1]; Table 7, 200 ppm in Polysorbate 80 coating on silica): 1.75 h
- Rancimat Stability ([1]; Table 8, 200 ppm): 1.85 h
- Rancimat Stability ([1]; Table 9, 200 ppm): 4.45 h
- Rancimat Stability ([1]; Table 10, 200 ppm): 6.15 h

Compound: polyoxyethylene sorbitan monastearate [Tween 60]
- Initial rate of proteinase activation ([2]; control=0): 98.04%
- Km (additive conc.), proteinase activation [2, 5]: 0.28 ± 0.02a %
- Vmax (maximum proteinase activation) [2, 5]: 99.2 ± 2.7a %/unit additive conc.
- Initial rate of cellulose degradation (rumen cellulase activity): 0.87b (0.28) μg/ml/hr
- HLB (hydrophile-lipophile balance) [3]: 14.9

Compound: CCOc1ccc2c(c1)C(C)=CC(C)(C)N2 [EQ, ethoxyquin]
- Rancidity Score ([4]; 1 week, score 0 (no rancid odors) to 10): 1.0
- Rancidity Score ([4]; 2 weeks): 2.0
- Rancidity Score ([4]; 6 weeks): 3.5
- Rancidity Score ([4]; 10 weeks): 5.0
